Measured values as given in paper PMC7059627 (FASEB bioAdvances, 2020).

Experiments:
[1] = target: T1, mitochondrial complex I (Bos taurus, UniProt P03887+P17694+P42026); test: NADH:decylubiquinone/DCPIP complex I kinetics in freeze-thawed mitochondria; type: biochemical
[2] = target: T1, mitochondrial complex I; test: Michaelis-Menten kinetics with DCPIP reduction, NADH as electron donor; type: cell-based

T1 sequence (P42026 38-216): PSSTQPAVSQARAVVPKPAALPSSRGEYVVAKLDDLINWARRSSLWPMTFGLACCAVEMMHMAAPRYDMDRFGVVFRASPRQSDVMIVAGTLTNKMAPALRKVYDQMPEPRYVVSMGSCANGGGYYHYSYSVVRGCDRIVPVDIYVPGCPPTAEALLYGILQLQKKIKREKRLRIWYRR
T1 sequence (P03887 whole entry): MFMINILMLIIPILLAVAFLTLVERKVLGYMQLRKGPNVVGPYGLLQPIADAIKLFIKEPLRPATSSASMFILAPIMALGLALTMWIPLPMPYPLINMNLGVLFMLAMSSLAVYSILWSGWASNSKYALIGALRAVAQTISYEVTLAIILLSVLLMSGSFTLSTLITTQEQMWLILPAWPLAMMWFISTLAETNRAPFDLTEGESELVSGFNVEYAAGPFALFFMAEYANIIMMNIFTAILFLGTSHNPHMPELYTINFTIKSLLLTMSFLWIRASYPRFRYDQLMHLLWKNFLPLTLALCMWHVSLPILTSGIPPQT
T1 sequence (P17694 34-463): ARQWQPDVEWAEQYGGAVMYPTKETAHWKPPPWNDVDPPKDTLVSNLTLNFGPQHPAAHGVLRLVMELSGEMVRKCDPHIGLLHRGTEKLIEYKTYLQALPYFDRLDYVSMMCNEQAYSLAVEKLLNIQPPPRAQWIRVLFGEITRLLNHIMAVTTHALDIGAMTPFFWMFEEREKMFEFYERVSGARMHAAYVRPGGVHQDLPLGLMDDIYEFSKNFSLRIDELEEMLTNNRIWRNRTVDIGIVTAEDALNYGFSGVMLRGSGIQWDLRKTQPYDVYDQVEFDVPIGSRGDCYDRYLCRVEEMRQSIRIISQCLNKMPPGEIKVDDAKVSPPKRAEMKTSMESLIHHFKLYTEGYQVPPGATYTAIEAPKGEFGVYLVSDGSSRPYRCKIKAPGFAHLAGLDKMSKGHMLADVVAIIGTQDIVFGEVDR

SMILES | Ki [1] [nM] | Michaelis-Menten kinetics with DCPIP reduction, NADH as electron donor [2]
CCCCCCCc1[nH]c2ccccc2c(=O)c1O [PQS, 2‐heptyl‐3‐hydroxy‐4(1H)‐quinolone] | 560 | –
CCCCCCCCCCC1=C(C)C(=O)C(OC)=C(OC)C1=O [decylubiquinone] | – | Kinetics with the substrate analog decylubiquinone at different PQS concentrations were measured
